Results on 14 molecules are retold here after US20230103444A1 (The Regents of the University of Colorado, a Body Corporate, priority 2020, published 2023).

Data set [1] deals with HCT116 tumor organoids. The data set can be described thus: Tumor organoid cytotoxicity (CellTiter-Glo 3D). The format is cell-based, human. Conditions: Homo sapiens. The procedure: (§1) Cell based cytotoxicity dose response and combination studies. […] Plates were then incubated for 3 days before treatment.
Cell Line Tumor Organoid Culture.
Tumor Organoid Cytotoxicity.

Data set [2] relates to SW620 tumor organoids. Put plainly: Tumor organoid cytotoxicity (CellTiter-Glo 3D). Conditions: Homo sapiens. (In general: ATP-based viability assays read luminescence as a measure of living cells.)
Data set [3] in a line: Mouse liver microsome stability. Conditions: CD-1, mouse. A general note: Microsomes from liver hold many membrane-bound enzymes, among them those of drug oxidation.
Data set [4] has as its target T1, cat-CHD1L ATPase (Homo sapiens, UniProt Q86WJ1).
T1 construct: inferred from Ni-NTA / imidazole purification; made in house; host or cells: E. coli Rosetta 2 (DE3) pLysS; constructs were a gift from Helena Berglund, Karolinska Institute
T1 sequence (Q86WJ1 16-611 limits assumed): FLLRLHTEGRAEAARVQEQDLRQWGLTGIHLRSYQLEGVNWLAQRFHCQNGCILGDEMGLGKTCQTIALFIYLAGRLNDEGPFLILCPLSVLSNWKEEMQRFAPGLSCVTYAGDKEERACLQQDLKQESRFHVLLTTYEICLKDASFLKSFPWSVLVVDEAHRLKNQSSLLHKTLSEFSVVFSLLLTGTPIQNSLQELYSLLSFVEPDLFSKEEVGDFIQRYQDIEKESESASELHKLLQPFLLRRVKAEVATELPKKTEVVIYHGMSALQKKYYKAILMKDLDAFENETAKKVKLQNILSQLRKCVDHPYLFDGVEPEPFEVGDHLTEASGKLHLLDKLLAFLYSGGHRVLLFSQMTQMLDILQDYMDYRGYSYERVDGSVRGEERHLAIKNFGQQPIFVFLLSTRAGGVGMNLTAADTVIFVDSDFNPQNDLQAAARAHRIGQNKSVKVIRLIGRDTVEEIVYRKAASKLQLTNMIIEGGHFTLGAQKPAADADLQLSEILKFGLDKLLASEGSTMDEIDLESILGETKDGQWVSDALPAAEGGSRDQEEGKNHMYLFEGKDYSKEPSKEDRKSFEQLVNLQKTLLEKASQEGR
The data set can be described thus: CHD1L ATPase assay with recombinant catalytic domain (cat-CHD1L). Format: biochemical. The following applies: for IC50: Table 6, read-out: cat-CHD1L inhibition IC50. The method, then: All reactions were carried out using low volume non-binding surface 384-well plates (Corning Inc., Corning N.Y.). cat-CHD1L or fl-CHD1L (100 nM) and 200 nM c-Myc DNA or mononucelosome (Active Motif, Carlsbad, Calif.) were added to a buffer containing 50 mM Tris pH 7.5, 50 mM NaCl, 1 mM DTT, 5% glycerol, and the reaction was initiated by the addition of 10 μM ATP (New England Biolabs, Ipswich, Mass.) to a total volume of 10 μL and incubated at 37° C. for 1 h. ATPase activity was assayed by adding 500 nM of Phosphate Sensor (Life Technologies, Carlsbad, Calif.), containing labeled phosphate-binding protein, specifically labeled with the fluorophore MDCC, and measuring excitation (430 nm) and emission (450 nm) immediately on an EnVision® plate reader (PerkinElmer, Hopkinton, Mass.). An inorganic phosphate standard curve was used to convert the fluorescence to [Pi], and enzyme kinetics were determined using Prism8 (GraphPad Software, San Diego, Calif.).
Assay composition was the same as described above using cat-CHD1L, except that the reaction mixture volume was modified to accommodate addition of drug or DMSO. Using a Janus® liquid handler (PerkinElmer, Hopkinton, Mass.), a selected amount of compounds dissolved in 100% DMSO were mixed with 50 mM Tris pH 7.5, 50 mM NaCl, 1 mM DTT, 5% glycerol buffer to 200 μM in 10% DMSO. […] The negative control used was 1% DMSO and 10 mM EDTA was used as a positive control. Reactions were initiated with the addition of 10 μM ATP and incubated at 37° C. for 1 h. ATPase activity was measured by fluorescence by adding 500 nM Phosphate Sensor. cat-CHD1L was screened against a 20,000-compound diversity set from Life Chemicals (Woodbridge, Conn.) and a Kinase Inhibitor library from Selleck Chemicals (Houston, Tex.).
CHD1L Enzyme ATPase Assay. […] All reactions were carried out using low volume nonbinding surface 384-well plates (Corning Inc., Corning, N.Y.). […] The reaction was initiated by the addition of 10 μmol/L ATP (New England Biolabs, Ipswich, Mass.) to a total volume of 10 μL and incubated at 37° C. for 1 hour. ATPase activity was measured by adding 500 nmol/L of Phosphate Sensor (ThermoFisher, Waltham, Mass.) measuring excitation (430 nm) and emission (450 nm) immediately on an Envision plate reader (PerkinElmer, Waltham, Mass.). Background signal was determined by using all assay components excluding the enzyme.

Data set [5] in a line: Human microsomal stability. Format: in vitro ADME. The following applies: human microsomes, Table 6, read-out: Microsomal stability Human t1/2.
The test system of data set [6] is SW620 tumor organoids. Put plainly: Synergy studies with SN38 (LOEWE synergy scores). Format: cell-based, human. Conditions: killing SW620 tumor organoids. The procedure: as §1
(e.g., synergy score 20 corresponds to 20% of response beyond expectation). According to our experience, the synergy scores near 0 gives limited confidence on synergy or antagonism.
When the synergy score is: • Less than −10: the interaction between two drugs is likely to be antagonism; • From −10 to 10: the interaction between two drugs is likely to be additivity; • Larger than 10: the interaction between two drugs is likely to be synergy.

Where [7] appears, read: HCT-116, 72 h, Table 6, read-out: 3 D Cytotoxicity 72 hr IC50 (μM) HCT116.
[8] abbreviates: HCT-116, single agent, Table 4A, read-out: Tumor Organoid Cytotoxicity IC50 (μM) HCT116.
The mark [9] stands for this setting: SW-620, 72 h, read-out: 3 D Cytotoxicity 72 hr IC50 (μM) SW620.
Setting [10] is: SW-620, read-out: Tumor Organoid Cytotoxicity IC50 (μM) SW620.
Setting [11] is: liver microsomes, pH 7.4, In Vitro Half-Life (Min), second series, different liver microsome preparation.
The mark [12] stands for this setting: SW-620, read-out: IC50 of cytotoxicity in SW620 cells.
Setting [13] is: liver microsomes, pH 7.4, Microsomal stability Mouse t1/2 (min), Table 6.

Where two headings read alike, the source gives them in different places.

Broadly, the IC50 is the concentration at which inhibition is half-maximal. Take `Cc1nc(N2CCCC2)nc(Nc2ccc(NC(=O)Cc3cccs3)cc2)c1F` [Compound 6.1, N-(4-((5-fluoro-6-methyl-2-(pyrrolidin-1-yl)pyrimidin-4-yl)amino)phenyl)-2-(thiophen-2-yl)acetamide]: the IC50 is greater than 40 µM in data set [1] (setting [7]), greater than 30 µM in data set [1] (setting [8]), greater than 40 µM in data set [2] (setting [9]) and greater than 40 µM in data set [2] (setting [10]). This molecule came in with a half-life at 10 μM in data set [3] (setting [11]) of 34.9 min.
In the case of `COc1cnc(N2CCCC2)nc1Nc1ccc(NC(=O)Cc2cccs2)cc1` [Compound 6.10, N-(4-((5-methoxy-2-(pyrrolidin-1-yl)pyrimidin-4-yl)amino)phenyl)-2-(thiophen-2-yl)-acetamide], the IC50 is greater than 40 µM in data set [1] (setting [7]), greater than 30 µM in data set [1] (setting [8]), 24.1 µM in data set [2] (setting [9]) and 22.6 µM in data set [2] (setting [10]). In data set [3] (setting [11]), this molecule gave a half-life at 10 μM of 16.7 min.
With `Cc1cc(Oc2ccc(NC(=O)c3c[nH]c4ccccc34)cc2)nc(N2CCCC2)n1` [Compound 6.14, N-(4-((6-methyl-2-(pyrrolidin-1-yl)pyrimidin-4-yl)oxy)phenyl)-1H-indole-3-carboxamide], the IC50 turned out to be 15.3 µM in data set [1] (setting [7]), 15.3 µM in data set [1] (setting [8]), 11.1 µM in data set [2] (setting [9]) and 10.4 µM in data set [2] (setting [10]). The molecule further gave a half-life at 10 μM in data set [3] (setting [11]) of 70.4 min.
As for `Cc1cc(Oc2ccc(NC(=O)Cc3cccs3)cc2)nc(N2CCCC2)n1` [Compound 6.13, N-(4-((6-methyl-2-(pyrrolidin-1-yl)pyrimidin-4-yl)oxy)phenyl)-2-(thiophen-2-yl)acetamide], the 50% inhibitory concentration (IC50) was greater than 40 µM in data set [1] (setting [7]), greater than 30 µM in data set [1] (setting [8]), greater than 20 µM in data set [2] (setting [9]) and greater than 20 µM in data set [2] (setting [10]). In data set [3] (setting [11]), this molecule returned a half-life at 10 μM of 43.1 min.
Consider `Cc1cc(NCc2ccc(NC(=O)Cc3cc(Br)cs3)cc2)nc(N2CCCC2)n1` [Compound 6.33], for which the concentration for half-maximal inhibition (IC50) in data set [4] is 0.3 µM; in data set [1] (setting [7]) it was 11.6 µM; in data set [2] (setting [9]), 4 µM; in data set [2] (setting [12]) it was less than 10 µM. In data set [4] (recombinant cat-CHD1L), the “CHD1L enzyme inhibition, in words” value is recorded as “good enzyme inhibition”. For the same molecule, in data set [5], the half-life came out at 38.2 min. Also, the half-life at 10 μM in data set [3] (setting [13]) was found to be 76 min.
As to `Cc1cc(Nc2ccc(NC(=O)c3c[nH]c4ncccc34)cc2)nc(N2CCCC2)n1` [Compound 6.9, N-(4-((6-methyl-2-(pyrrolidin-1-yl)pyrimidin-4-yl)amino)phenyl)-1H-pyrrolo[2,3-b]pyridine-3-carboxamide], in data set [6], the “synergism with irinotecan (and SN38), in words” value is “synergism”. The half-inhibitory concentration (IC50) in data set [1] (setting [7]) is 19.7 µM; in data set [1] (setting [8]) it was 19.6 µM; in data set [2] (setting [9]), 8.3 µM; in data set [2] (setting [10]) it was 8.1 µM. The half-life at 10 μM in data set [3] (setting [11]) stood at 295 min.
On to `Cc1nc(N2CCCC2)nc(Nc2ccc(N(C)C(=O)Cc3cccs3)cc2)c1F` [Compound 6.4], for which the 50% inhibitory concentration (IC50) in data set [1] (setting [7]) was greater than 40 µM; in data set [1] (setting [8]), greater than 30 µM; in data set [2] (setting [9]), greater than 40 µM; in data set [2] (setting [10]) it was 28.4 µM. The molecule further registered a half-life at 10 μM in data set [3] (microsomes, pH 7.4) of 31.4 min.
Consider `Cc1cc(Nc2ccc(NC(=O)Cc3cccs3)cc2)nc(N2CCOCC2)n1` [Compound 6.15, N-(4-((6-methyl-2-morpholinopyrimidin-4-yl)amino)phenyl)-2-(thiophen-2-yl)acetamide], for which the IC50 was 19.7 µM in data set [1] (setting [7]), 19.7 µM in data set [1] (setting [8]), 13.1 µM in data set [2] (setting [9]) and 16.4 µM in data set [2] (setting [10]). Also, the half-life at 10 μM in data set [3] (setting [11]) was found to be 22.7 min.
Consider `Cc1cc(N2CCCC2)nc(NCc2ccc(NC(=O)Cc3cc(Br)cs3)cc2)n1` [Compound 6.41], for which the half-inhibitory concentration (IC50) in data set [4] is 0.5 µM; in data set [1] (setting [7]) it was 21.3 µM; in data set [2] (setting [9]), 13.5 µM. In addition, the half-life in data set [5] was 171 min. The same molecule registered a half-life at 10 μM in data set [3] (setting [13]) of 62 min.
With `Cc1cc(Nc2ccc(NC(=O)Cc3c[nH]c4cc(Cl)ccc34)cc2)nc(N2CCCC2)n1` [Compound 6.18, 2-(6-chloro-1H-indol-3-yl)-N-(4-((6-methyl-2-(pyrrolidin-1-yl)pyrimidin-4-yl)amino)phenyl)acetamide], in data set [5], the half-life was determined as 88.1 min. For the same molecule, the IC50 in data set [1] (setting [7]) was 3 µM; in data set [1] (setting [8]), 2.95 µM; in data set [2] (setting [9]), 1.5 µM; in data set [2] (setting [12]), less than 10 µM; in data set [2] (setting [10]), 1.4 µM. In data set [3] (setting [13]), the half-life at 10 μM stood at 141 min.
For the molecule `Cc1cc(Nc2ccc(NC(=O)Cc3cccc4ccccc34)cc2)nc(N2CCCC2)n1` [Compound 6.16, N-(4-((6-methyl-2-(pyrrolidin-1-yl)pyrimidin-4-yl)amino)phenyl)-2-(naphthalen-1-yl)acetamide], in data set [5], the half-life is 59.5 min. Moreover, the concentration for half-maximal inhibition (IC50) in data set [1] (setting [7]) is 2.4 µM; in data set [1] (setting [8]), 2.43 µM; in data set [2] (setting [12]) it was less than 10 µM. In data set [3] (setting [13]), this molecule showed a half-life at 10 μM of 55.5 min.
As for `Cc1cc(Nc2ccc(NC(=O)Cc3ccco3)cc2)nc(N2CCCC2)n1` [Compound 6.39], the IC50 in data set [4] was greater than 20 µM; in data set [1] (setting [7]), 10.8 µM; in data set [2] (setting [9]), 14.2 µM. The half-life in data set [5] is 88.6 min. This molecule returned a half-life at 10 μM in data set [3] (setting [13]) of 70.5 min.
As to `Cc1cc(Oc2ccc(NC(=O)Cc3cccs3)cc2)nc(Cl)n1` [Compound 6.12, N-(4-((2-chloro-6-methylpyrimidin-4-yl)oxy)phenyl)-2-(thiophen-2-yl)acetamide], the IC50 in data set [1] (setting [7]) was greater than 40 µM; in data set [1] (setting [8]) it was greater than 30 µM; in data set [2] (setting [9]) it was greater than 20 µM; in data set [2] (setting [10]), greater than 20 µM. The molecule further returned a half-life at 10 μM in data set [3] (setting [11]) of 9.3 min.
Consider `Cc1cc(Nc2ccc(NC(=O)Cc3c(C)[nH]c4ccccc34)cc2)nc(N2CCCC2)n1` [Compound 6.21, 2-(2-methyl-1H-indol-3-yl)-N-(4-((6-methyl-2-(pyrrolidin-1-yl)pyrimidin-4-yl)amino)phenyl)acetamide], for which the half-life in data set [5] stood at 43.8 min. Moreover, the IC50 in data set [2] (setting [9]) was 1.7 µM; in data set [2] (setting [12]), less than 10 µM; in data set [2] (setting [10]), 1.6 µM. The molecule also registered a half-life at 10 μM in data set [3] (setting [13]) of 47.8 min.
